Like-named read-outs stand apart in the source and are kept apart here.
Test system: DUX4 expression (surrogate marker MBD3L2)
Assay: Screening: qPCR analysis of DUX4 target gene MBD3L2 in differentiating MB200 FSHD2 muscle cells
Assay type: cell-based
Details: Homo sapiens, 40 hours, DUX4 expression inferred from surrogate marker MBD3L2 expression (qPCR, normalized to RPL30)
Protocol: Cells and Cell Culture. Primary human myoblast cell lines, immortalized by retroviral transduction of cyclin-dependent kinase 4 (CDK4) and human telomerase reverse transcriptase (hTERT) (Stadler, et al., 2011), were obtained from the Fields Center at the University of Rochester (world-wide-web at urmc.rochester.edu/fields-center.aspx). Immortalized myoblasts were grown in Ham's F-10 Nutrient Mix (Gibco, Waltham, MA, USA) supplemented with 20% HyClone Fetal Bovine Serum (GE Healthcare Life Sciences, Pittsburgh, PA, USA), 100 U/100 μg penicillin/streptomycin (Gibco), 10 ng/ml recombinant human fibroblast growth factor (Promega Corporation, Madison, WI, USA) and 1 μM dexamethasone (Sigma-Aldrich). Differentiation of myoblasts into myotubes was achieved by switching the fully confluent myoblast monolayer into Dulbecco's Modified Eagle Medium (DMEM) (Gibco) containing 1% horse serum (Gibco), 100 U/100 μg penicillin/streptomycin, 10 μg/ml insulin (Sigma-Aldrich) and 10 μg/ml transferrin (Sigma-Aldrich) (HS/IT media) or DMEM:F12 Nutrient Mixture (1:1, Gibco) supplemented with 2% KnockOut Serum Replacement (Gibco), 100 U/100 μg penicillin/streptomycin, 10 μg/ml insulin and 10 μg/ml transferrin (KSR media) for 2-6 days.
Screening: qPCR analysis of DUX4 target genes MBD3L2. For screening compounds, differentiating MB200 FSHD2 muscle cells were exposed to BET inhibitors at a variety of concentrations for 40 hours to determine the effects of the drugs on DUX4 expression. Cell lysates were prepared using Cells-to-Ct Bulk Lysis Reagents (Invitrogen, Waltham, MA, USA). Gene expression was measured by quantitative polymerase chain reaction (qPCR) was carried out on a QuantStudio 5 (Applied Biosystems, Waltham, MA, USA) using TaqMan Gene Expression Assays (Applied Biosystems) and TaqMan Fast Virus 1-Step Master Mix (Invitrogen). The relative expression levels of DUX4 target gene methyl-CpG binding domain protein 3 like 2 (MBD3L2), was normalized to that of the reference gene ribosomal protein L30 (RPL30), which was included in multiplex (two gene) PCR reactions. TaqMan Gene Expression Assay ID numbers: MBD3L2, Hs00544743_m1; RPL30, Hs00265497_m1. Data is expressed as relative expression with the expression in absence of inhibitors set to one.
Analysis of MBD3L2 expression in cultured FSHD2 cells. DUX4 mRNA is present in very low levels, even in differentiating FSHD2 myoblasts, so DUX4 target gene MBD3L2 was used as a surrogate marker of DUX4 expression. FSHD2 patient derived muscle cells were analyzed to determine whether BET inhibitors affect MBD3L2 expression, indicating a reduction in DUX4 expression.

SMILES	IC50 (read-out: DUX4* MT FSHD2: IC50)	IC50 (read-out: DUX4* MT FSHD2 IC50)
C[C@H]1C(=O)N(C)CCN1CCOc1ccc(-c2ccc3cc(-c4cn(C)c(=O)c5[nH]ccc45)ccc3n2)cc1 [SLU-2236, (S)-4-{2-[4-(2-(2,4-dimethyl-3-oxopiperazin-1-yl)ethoxy)phenyl]quinolin-6-yl}-6-methyl-1H-pyrrolo[2,3-c]pyridin-7(6H)-one]	13 nM	13 nM
C[C@@H]1C(=O)N(C)CCN1CCOc1ccc(-c2ccc(-c3cn(C)c(=O)c4[nH]ccc34)cc2)cc1 [SLU-2097, (R)-4-{4′-[2-(2,4-dimethyl-3-oxopiperazin-1-yl)ethoxy]-[1,1′-biphenyl]-4-yl}-6-methyl-1H-pyrrolo[2,3-c]pyridin-7(6H)-one]	120 nM	120 nM
CN1CCN(CCOc2ccc(-c3ccc4nc(-c5cn(C)c(=O)c6[nH]ccc56)ccc4c3)cc2)CC1=O [SLU-2283, 6-methyl-4-{6-[4-(2-(4-methyl-3-oxopiperazin-1-yl)ethoxy)phenyl]quinolin-2-yl}-1H-pyrrolo[2,3-c]pyridin-7(6H)-one]	160 nM	160 nM
C[C@@H]1C(=O)N(C)CCN1CCOc1ccc(CCc2ccc(-c3cn(C)c(=O)c4[nH]ccc34)cc2)cc1 [SLU-2227, (R)-4-{4-[4-(2-(2,4-dimethyl-3-oxopiperazin-1-yl)ethoxy)phenethyl]phenyl}-6-methyl-1H-pyrrolo[2,3-c]pyridin-7(6H)-one]	69 nM	69 nM
CN1CCN(CCOc2ccc(C3CCN(c4ccc(-c5cn(C)c(=O)c6[nH]ccc56)cn4)CC3)cc2)CC1 [SLU-2114, 6-methyl-4-{6-[4-(4-(2-(4-methylpiperazin-1-yl)ethoxy)phenyl)piperidin-1-yl]pyridin-3-yl}-1H-pyrrolo[2,3-c]pyridin-7(6H)-one]	330 nM	330 nM
Cn1cc(-c2ccc(N3CCC(c4ccc(OCCN5CCOCC5)cc4)CC3)nc2)c2cc[nH]c2c1=O [SLU-2118, 6-methyl-4-{6-[4-(4-(2-morpholinoethoxy)phenyl)piperidin-1-yl]pyridin-3-yl}-1H-pyrrolo[2,3-c]pyridin-7(6H)-one]	261 nM	261 nM
CC(=O)N1C[C@@H](C)N(CCOc2ccc(-c3ccc(-c4cn(C)c(=O)c5[nH]ccc45)cc3)cc2)[C@@H](C)C1 [SLU-2096, 4-{4′-[2-((2R,6S)-4-acetyl-2,6-dimethylpiperazin-1-yl)ethoxy]-[1,1′-biphenyl]-4-yl}-6-methyl-1H-pyrrolo[2,3-c]pyridin-7(6H)-one]	180 nM	180 nM
C[C@@H]1C(=O)N(C)CCN1CCOc1ccc(-c2ccc3nc(-c4cn(C)c(=O)c5[nH]ccc45)ccc3c2)cc1 [SLU-2112, (R)-4-{6-[4-(2-(2,4-dimethyl-3-oxopiperazin-1-yl)ethoxy)phenyl]quinolin-2-yl}-6-methyl-1H-pyrrolo[2,3-c]pyridin-7(6H)-one]	40 nM	40 nM
CCn1cc(-c2ccc3cc(-c4ccc(OCCN5CCN(C)C(=O)[C@H]5C)cc4)ccc3n2)c2cc[nH]c2c1=O [SLU-2295, (R)-4-{6-[4-(2-(2,4-dimethyl-3-oxopiperazin-1-yl)ethoxy)phenyl]quinolin-2-yl}-6-ethyl-1H-pyrrolo[2,3-c]pyridin-7(6H)-one]	51 nM	51 nM
CN1CCN(CCOc2ccc(-c3ccc4cc(-c5cn(C)c(=O)c6[nH]ccc56)ccc4n3)cc2)C(C)(C)C1=O [SLU-2241, 6-methyl-4-{2-[4-(2-(2,2,4-trimethyl-3-oxopiperazin-1-yl)ethoxy)phenyl]quinolin-6-yl}-1H-pyrrolo[2,3-c]pyridin-7(6H)-one]	110 nM	110 nM
C[C@@H]1C(=O)N(C)CCN1CCOc1ccc(C2CCN(c3ccc(-c4cn(C)c(=O)c5[nH]ccc45)cn3)CC2)cc1 [SLU-2089, (R)-4-{6-[4-(4-(2-(2,4-dimethyl-3-oxopiperazin-1-yl)ethoxy)phenyl)piperidin-1-yl]pyridin-3-yl}-6-methyl-1H-pyrrolo[2,3-c]pyridin-7(6H)-one]	4.8 nM	4.8 nM
CCCN1CCN(CCOc2ccc(-c3ccc4cc(-c5cn(C)c(=O)c6[nH]ccc56)ccc4n3)cc2)CC1=O [SLU-2282, 6-methyl-4-{2-[4-(2-(3-oxo-4-propylpiperazin-1-yl)ethoxy)phenyl]quinolin-6-yl}-1H-pyrrolo[2,3-c]pyridin-7(6H)-one]	54 nM	54 nM
Cn1cc(-c2ccc3ncccc3c2)c2cc[nH]c2c1=O [SLU-2298, 6-methyl-4-(quinolin-6-yl)-1H-pyrrolo[2,3-c]pyridin-7(6H)-one]	113 nM	113 nM
C[C@@H]1C(=O)N(C)CCN1CCOc1cccc(-c2ccc3cc(-c4cn(C)c(=O)c5[nH]ccc45)ccc3n2)c1 [SLU-2301, (R)-4-{2-[3-(2-(2,4-dimethyl-3-oxopiperazin-1-yl)ethoxy)phenyl]quinolin-6-yl}-6-methyl-1H-pyrrolo[2,3-c]pyridin-7(6H)-one]	13 nM	13 nM
Cn1cc(-c2ccc(N3CCC4(CCNCC4)C3)nc2)c2cc[nH]c2c1=O [SLU-2214, 4-[6-(2,8-diazaspiro[4.5]decan-2-yl)pyridin-3-yl]-6-methyl-1H-pyrrolo[2,3-c]pyridin-7(6H)-one]	95 nM	95 nM
Cn1cc(-c2ccc(N3CCC4(CCNC4)CC3)nc2)c2cc[nH]c2c1=O [SLU-2120, 4-[6-(2,8-diazaspiro[4.5]decan-8-yl)pyridin-3-yl]-6-methyl-1H-pyrrolo[2,3-c]pyridin-7(6H)-one]	350 nM	350 nM
C[C@@H]1C(=O)N(C)CCN1CCOc1ccc(-c2ccc3nc(-c4cn(C)c(=O)c5[nH]ccc45)ccc3c2)nc1 [SLU-2213]	41 nM	41 nM
CN1CCN(CCOc2ccc(-c3ccc4cc(-c5cn(C)c(=O)c6[nH]ccc56)ccc4n3)cc2)CC1=O [SLU-2244, 6-methyl-4-{2-[4-(2-(4-methyl-3-oxopiperazin-1-yl)ethoxy)phenyl]quinolin-6-yl}-1H-pyrrolo[2,3-c]pyridin-7(6H)-one]	28 nM	28 nM
C[C@@H]1C(=O)N(C)CCN1CCOc1ccc(-c2ccc3cc(-c4c[nH]c(=O)c5[nH]ccc45)ccc3n2)cc1 [SLU-2302, (R)-4-{2-[4-(2-(2,4-dimethyl-3-oxopiperazin-1-yl)ethoxy)phenyl]quinolin-6-yl}-1H-pyrrolo[2,3-c]pyridin-7(6H)-one]	1800 nM	1800 nM
C=CCn1cc(-c2ccc3nc(-c4ccc(OCCN5CCN(C)C(=O)[C@H]5C)cc4)ccc3c2)c2cc[nH]c2c1=O [SLU-2293, (R)-6-allyl-4-{2-[4-(2-(2,4-dimethyl-3-oxopiperazin-1-yl)ethoxy)phenyl]quinolin-6-yl}-1H-pyrrolo[2,3-c]pyridin-7(6H)-one]	18 nM	18 nM
Cn1cc(-c2ccc3nc(-c4ccc(OCCN5CCOCC5)cc4)ccc3c2)c2cc[nH]c2c1=O [SLU-2234, 6-methyl-4-{2-[4-(2-morpholinoethoxy)phenyl]quinolin-6-yl}-1,6-dihydro-7H-pyrrolo[2,3-c]pyridin-7-one]	69 nM	69 nM
Cn1cc(-c2ccc(N3CCC4(CCN(C(=O)CO)CC4)CC3)nc2)c2cc[nH]c2c1=O [SLU-2115, 4-{6-[9-(2-hydroxyacetyl)-3,9-diazaspiro[5.5]undecan-3-yl]pyridin-3-yl}-6-methyl-1H-pyrrolo[2,3-c]pyridin-7(6H)-one]	97 nM	97 nM
C[C@@H]1C(=O)N(C)CCN1CCCN1CCN(c2ccc3cc(-c4cn(C)c(=O)c5[nH]ccc45)ccc3n2)CC1 [SLU-2346, (R)-4-{2-[4-(3-(2,4-dimethyl-3-oxopiperazin-1-yl)propyl)piperazin-1-yl]quinolin-6-yl}-6-methyl-1H-pyrrolo[2,3-c]pyridin-7(6H)-one]	41 nM	41 nM
Cn1cc(-c2ccc3cc(-c4ccc(OCCN5CCOCC5)cc4)ccc3n2)c2cc[nH]c2c1=O [SLU-2278, 6-methyl-4-{6-[4-(2-morpholinoethoxy)phenyl]quinolin-2-yl}-1,6-dihydro-7H-pyrrolo[2,3-c]pyridin-7-one]	120 nM	120 nM

Source: US12636290B2, “BET inhibitors for modulating DUX4 expression in FSHD” (Saint Louis University, priority 2018, dated 2026)
